Experimental data reported in PubChem BioAssay (NCI).
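Cells were grown in 96-well plates and exposed to each compound for 48 hours at five concentrations; endpoints were interpolated linearly between bracketing concentrations, or set to the highest concentration if not reached. The concentration for full growth arrest is given as TGI.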

Key:
Experiment in all cases: inhibition of tumour cell growth, NCI panel, 48 h
[1] = tested on: CCRF-CEM leukemia
[2] = tested on: MOLT-4 leukemia
[3] = tested on: NCI-H23 lung
[4] = tested on: HCT-15 colon
[5] = tested on: SK-OV-3 ovarian
[6] = tested on: MALME-3M melanoma
[7] = tested on: SW-620 colon
[8] = tested on: KM12 colon
[9] = tested on: U251 CNS
[10] = tested on: OVCAR-8 ovarian
[11] = tested on: HCT-116 colon
[12] = tested on: MCF7 breast
[13] = tested on: HOP-92 NSCLC
[14] = tested on: NCI/ADR-RES ovarian
[15] = tested on: UACC-257 melanoma
[16] = tested on: DU-145 prostate
[17] = tested on: K-562 leukemia
[18] = tested on: PC-3 prostate
[19] = tested on: SNB-75 CNS
[20] = tested on: SR leukemia

Row | SMILES | TGI [1] [µM] | TGI [2] [µM] | TGI [3] [µM] | TGI [4] [µM] | TGI [5] [µM] | TGI [6] [µM] | TGI [7] [µM] | TGI [8] [µM] | TGI [9] [µM] | TGI [10] [µM] | TGI [11] [µM] | TGI [12] [µM] | TGI [13] [µM] | TGI [14] [µM] | TGI [15] [µM] | TGI [16] [µM] | TGI [17] [µM] | TGI [18] [µM] | TGI [19] [µM] | TGI [20] [µM]
1 | CC(=O)OCC1OC(OC2CC3C(C)(C)C(O)CC[C@]3(C)C3CCC45CC4(CCC5[C@@H](C)CC(O)C(O)C(C)(C)O)[C@]23C)C(O)C(O)C1O (some centres undefined) | > 10 | > 10 | > 10 | > 10 | > 10 | > 10 | > 10 | > 10 | > 10 | > 10 | > 10 | > 10 | > 10 | > 10 | > 10 | > 10 | > 10 | > 10 | > 10 | –
2 | CC(C)[Si]1(C(C)C)OCC2OC3(CO)C(Oc4nc(=O)ccn43)C2O[Si](C(C)C)(C(C)C)O1 (centres undefined) | 24.6 | 24.8 | 30.1 | 28.5 | 36.3 | – | 34.7 | 30.8 | 28.1 | 31.8 | 24.7 | 18.6 | 32.2 | 41.6 | 30.1 | 27.7 | 45.5 | 17.7 | 30.7 | 47.1
3 | C=CCN(C(=O)CNC(=O)C(F)(F)F)c1cc(OCc2ccccc2)c2c(c1)c(C)cn2S(=O)(=O)c1ccccc1 | > 100 | > 100 | > 100 | > 100 | > 100 | > 100 | – | > 100 | > 100 | > 100 | > 100 | > 100 | > 100 | > 100 | > 100 | > 100 | > 100 | > 100 | > 76.2 | –
4 | CC(=O)N(C)CCc1c[nH]c2ccccc12 | > 100 | > 100 | > 100 | > 100 | > 100 | > 100 | > 100 | > 100 | > 100 | > 100 | > 100 | > 100 | – | > 100 | > 100 | > 100 | > 100 | > 100 | > 100 | > 100
5 | CCOC(=O)[C@H](C)OC(=O)[C@@](C)(NC(=O)c1ccccc1C(=O)OC)[C@@H]1NC=C(C(=O)OC)CS1 | 63.9 | > 100 | > 100 | > 100 | > 100 | > 100 | > 100 | > 100 | > 100 | > 100 | > 100 | > 100 | – | > 100 | > 100 | > 100 | > 100 | > 100 | > 100 | 46.5
6 | CC1(C)OC[C@@H]([C@H](O)C2C=CC(=O)S2)O1 (some centres undefined) | 97.9 | 75.2 | 78.5 | 35.5 | > 100 | 43.1 | 98.6 | 30.1 | 90.4 | 56.4 | 27.3 | > 100 | 58.5 | 83.6 | > 100 | 56.6 | > 100 | > 100 | > 100 | –
7 | COc1ccc(N=NC(=O)NC(CC(C)C)C(=O)NC(C)C(=O)O)cc1 (centres undefined) | > 100 | > 100 | > 100 | > 100 | – | > 100 | > 100 | > 100 | > 100 | > 100 | > 100 | > 100 | > 100 | > 100 | > 100 | > 100 | > 38.4 | > 100 | > 100 | > 100
8 | Cc1cc(C(F)(F)F)cc(-n2nc(NS(=O)(=O)c3cc(C)c(Cl)cc3S)nc2N)n1 | 54.1 | 69.5 | – | > 100 | > 100 | > 100 | > 100 | > 100 | > 100 | > 100 | > 100 | > 100 | > 100 | 94.1 | > 100 | – | > 100 | > 100 | > 100 | > 100
9 | FC(F)(F)c1ccc2c(c1)nc(-c1ccc(Cl)cc1)n2CC1CCCN2CCCCC12 (centres undefined) | 36 | 13 | – | 28.8 | 21.3 | 29.8 | 38.1 | 41.8 | 27.3 | 30.1 | 27.4 | 29.8 | 29.1 | 29.2 | 28.7 | 30.4 | – | 23.7 | 21.7 | 33.8
10 | O=C(Cn1c(-c2ccccc2)cc2ccccc21)N1CCCC1 | – | > 100 | – | > 100 | > 100 | > 100 | > 100 | – | – | > 100 | > 100 | > 100 | > 100 | > 100 | > 100 | > 100 | – | > 100 | > 100 | > 100
11 | O=C(CC(C(=O)c1ccsc1)c1ccccc1)c1ccccc1 (centres undefined) | > 100 | > 100 | 36.1 | > 100 | > 100 | – | > 100 | > 100 | > 100 | > 100 | > 100 | > 100 | > 100 | > 100 | > 100 | > 100 | > 100 | – | > 100 | > 100
12 | CC1C=CN(N(C)C)C2=C1C(=O)c1cnccc1C2=O (centres undefined) | 5.01 | 4.06 | 0.823 | 1.23 | 2.81 | 1.49 | 1.83 | 2.8 | 2.49 | 3.67 | 1.48 | 0.986 | 3.87 | 4.09 | 0.75 | 1.39 | – | 7.89 | 0.868 | 0.196
13 | CCOC(=O)Cc1ccc(Nc2nc3ccccc3nc2C(=O)OCC)cc1 | > 100 | > 100 | > 100 | > 100 | > 100 | > 100 | > 100 | > 100 | > 100 | > 100 | > 100 | > 100 | > 100 | > 100 | > 100 | > 100 | – | > 100 | 38.3 | > 100
